Experimental data from the RepoRT retention time repository (doi:10.1007/s00216-021-03828-0).

Assays:
Conditions in all cases: stereoisomer not certain
[1] = RP, Merck Supelco Ascentis Express C18, 100 × 2.1 mm, 2 µm, 40 °C, 0.2 mL/min, estimated dead time 1.1 min; A: water + 0.1% formic acid, pH 3; B: acetonitrile + 0.1% formic acid, pH 3; gradient (min/%B) 0/5 2/5 17/99.9 20/99.9
[2] = as above; remark: listed apart in the source
[3] = RP, Merck Supelco Ascentis Express C18, 100 × 2.1 mm, 2 µm, 40 °C, 0.4 mL/min, estimated dead time 0.55 min; A: water + 0.1% formic acid, pH 3; B: acetonitrile + 0.1% formic acid, pH 3; gradient (min/%B) 0/5 2/5 17/99.9 20/99.9
[4] = RP, Merck Supelco Ascentis Express C18, 100 × 2.1 mm, 2 µm, 40 °C, 0.35 mL/min, estimated dead time 0.63 min; A: water + 0.1% formic acid, pH 3; B: acetonitrile + 0.1% formic acid, pH 3; gradient (min/%B) 0/5 2/5 17/99.9 20/99.9
[5] = RP, Merck Supelco Ascentis Express C18, 100 × 2.1 mm, 2 µm, 40 °C, 0.4 mL/min, estimated dead time 0.55 min; A: water + 0.1% formic acid, pH 3; B: acetonitrile + 0.1% formic acid, pH 3; gradient (min/%B) 0/5 2/5 17/99.9 20/99.9; remark: listed apart in the source
[6] = RP, Merck Supelco Ascentis Express C18, 100 × 2.1 mm, 2 µm, 39 °C, 0.3 mL/min, estimated dead time 0.73 min; A: water + 0.1% formic acid, pH 3; B: acetonitrile + 0.1% formic acid, pH 3; gradient (min/%B) 0/5 2/5 17/99.9 20/99.9
[7] = RP, Merck Supelco Ascentis Express C18, 100 × 2.1 mm, 2 µm, 40 °C, 0.25 mL/min, estimated dead time 0.88 min; A: water + 0.1% formic acid, pH 3; B: acetonitrile + 0.1% formic acid, pH 3; gradient (min/%B) 0/5 2/5 17/99.9 20/99.9

Structure (SMILES)	LC retention time [1] [min]	LC retention time [2] [min]	LC retention time [3] [min]	LC retention time [4] [min]	LC retention time [5] [min]	LC retention time [6] [min]	LC retention time [7] [min]
CCCCCCSCC(NC(=O)CCC(N)C(=O)O)C(=O)NCC(=O)O (stereo unspecified) [S-HEXYL-GLUTATHIONE]	7.14	7.13	5.85	6.06	5.87	6.32	6.66
O=C(O)CCCCCCCCC(=O)O [SEBACATE]	7.79	7.81	6.34	6.59	6.39	6.92	7.27
O=C([O-])CCCCCCC(=O)[O-] [SUBERATE]	6.08	6.08	4.59	4.87	4.62	5.22	5.55
CSc1ncnc2nc[nH]c12 [THIOPURINE S-METHYLETHER]	4.85	4.85	3.33	3.61	3.37	3.94	4.33
NC(Cc1cc(I)c(Oc2cc(I)c(O)c(I)c2)c(I)c1)C(=O)O (stereo unspecified) [THYROXINE]	8.87	8.88	7.65	7.87	7.69	8.11	8.44
O=c1[nH]c(=O)c2ncn(C3OC(CO)C(O)C3O)c2[nH]1 (stereo unspecified) [XANTHOSINE]	1.65	1.62	0.81	0.923	0.81	1.05	1.29

Results, then the molecule that gave them:

LC retention time [1] [min]	LC retention time [2] [min]	LC retention time [3] [min]	LC retention time [4] [min]	LC retention time [5] [min]	LC retention time [6] [min]	LC retention time [7] [min]	Structure (SMILES)
5.82	5.82	4.02	4.34	4.05	4.72	5.19	NC(=O)c1ccccc1O [SALICYLAMIDE]
5.31	5.3	3.59	3.9	3.62	4.28	4.72	O=C(O)c1ccccc1[O-] [SALICYLATE]
3.96	3.98	2.15	2.47	2.16	2.81	3.32	Cn1c(=O)c2[nH]cnc2n(C)c1=O [THEOPHYLLINE]
2.09	2.06	1.04	1.19	1.05	1.36	1.64	Cc1cn(C2CC(O)C(CO)O2)c(=O)[nH]c1=O (stereo unspecified) [THYMIDINE]
1.6	1.59	0.8	0.903	0.783	1.05	1.27	Cc1c[nH]c(=O)[nH]c1=O [THYMINE]
8.28	8.31	6.54	6.86	6.59	7.27	7.67	O=C(O)/C=C/c1ccccc1 [TRANS-CINNAMATE]
4.15	4.17	2.29	2.57	2.28	3.33	3.61	O=C(O)c1cc(=O)c2cccc(O)c2[nH]1 [XANTHURENATE]
